This is an account of results in US20240025906A1 (NEURON23, INC., priority 2022, published 2024).

Molecules are shown by their SMILES. Some results are limits rather than exact numbers.

For one assay, the system named is JAK1/TYK2 pSTAT5 (Tyr694/699) in THP-1 cell line. Nature of the assay: IFNa-stimulated JAK1/TYK2 pSTAT5 (Tyr694/699) inhibition cellular assay, AlphaLISA. It is filed as cell-based. The conditions noted are these: Homo sapiens; THP-1 cells, IFNa-stimulated, AlphaLISA (Assay B); read-out: Cellular THP1_IFNa-pSTATS_IC50. The method, then:
Assay B: JAK1/TYK2 pSTAT5 (Tyr694/699) inhibition IC50 Cellular Assays
To evaluate the inhibition effect of compounds disclosed herein against TYK2, an IFNa-stimulated JAE1/TYK2 pSTAT5 (Tyr694/699) quantification assay was conducted in the THP-1 cell line using an AlphaLISA detection method (PerkinElmer ALSU-PST5). Compounds in DMSO were serially diluted in a 96-well plate (10 mM starting concentration, 6-fold dilutions, 8 concentrations total) prior to dispensing of 8 nL into a 384-well plate using an I.DOT non-contact liquid handler (Dispendix). Cells were collected via centrifugation at 300 ref for 5 min and resuspended in Hanks' Balanced Salt Solution (Gibco 14175-079), and 6 μl containing 2e4 cells was dispensed into each well of the 384-well plate containing test compounds or DMSO alone (final concentrations: 10000, 1666.67, 277.78, 46.30, 7.72, 1.29, 0.21 and 0.04 nM). Cells were then incubated for 1 h at 37° C. with 5% CO2 prior to the addition of 2 μL IFNa (100 ng/mL; PBL Assay Science 11175-1). Following an additional 30 min incubation at 37° C. with 5% CO2, 2 μL of 5× lysis buffer was added to each well using the I.DOT […]. Plates were sealed and incubated at RT for 10 min on a plate shaker set to 400 RPM. Cell lysates were then frozen at −80° C. before subsequent detection of pSTAT5 by AlphaLISA. At the time of the detection assay, cell lysates were thawed for 5 min at room temperature and then on a plate shaker set to 400 RPM for an additional 10 min. Following the manufacturer recommended protocol (Perkin Elmer), 5 μL of acceptor bead master mix was added to each well; plates were then resealed and incubated for 2 min at RT on a plate shaker (400 rpm) prior to an additional 2-h incubation without agitation (protected from light). Donor bead master mix, 5 uL per well, was then added to each well before 2 min of shaking (RT, 400 rpm) and 2-h incubation (RT, no shaking, protected from light). Levels of pSTAT5 protein were then measured as fluorescent signal at 615 nm with an EnVision multimode plate reader (Perkin Elmer). IC50 values were calculated in Dotmatics using the four-parameter logistic curve regression model with bottom fixed to 0 and Hill Slope fixed to −1.
(In Alpha technology, singlet oxygen from a donor bead excites a nearby acceptor bead.)
Consider `CNc1ncc(/C=C/c2ccccc2OC)c2cc(NC(=O)C3CC3)ncc12` [Example 174, (E)-N-(5-(2-methoxystyryl)-8-(methylamino)-2,7-naphthyridin-3-yl)cyclopropanecarboxamide], for which the IC50 was at most 500 nM.

The same assay, now with this note: Homo sapiens; THP-1 cells, IFNa-stimulated, AlphaLISA (Assay B); read-out: Cellular_THP1_IFNa-pSTATS_TYK2.
Regarding `CNc1ncc(-c2nc3cnc(C(F)F)cc3o2)c2cc(NC(=O)C3CC3)ncc12` [Example 461, N-(5-(6-(difluoromethyl)oxazolo[4,5-c]pyridin-2-yl)-8-(methylamino)-2,7-naphthyridin-3-yl)cyclopropanecarboxamide], the IC50 is at most 500 nM.

As for `CCNc1ncc(-c2nc3cc(N4CC5CNCC(C4)O5)ccc3o2)c2cc(NC(=O)C3CC3)ncc12` [Example 466, N-(5-(5-(9-oxa-3,7-diazabicyclo[3.3.1]nonan-3-yl)benzo[d]oxazol-2-yl)-8-(ethylamino)-2,7-naphthyridin-3-yl)cyclopropanecarboxamide], the IC50 was at most 500 nM.

For the molecule `CNc1ncc(-c2cc3ccc(N4CCO[C@@H](C)C4)cn3n2)c2cc(NC(=O)C3CC3)ncc12` [Example 797, (S)—N-(8-(methylamino)-5-(6-(2-methylmorpholino)pyrazolo[1,5-a]pyridin-2-yl)-2,7-naphthyridin-3-yl)cyclopropanecarboxamide], the IC50 is at most 500 nM.

Turning to `CNc1ncc(C#Cc2ccc(C(C)(C)O)cc2)c2cc(NC(=O)C3CC3)ncc12` [Example 802, N-(5-((4-(2-hydroxypropan-2-yl)phenyl)ethynyl)-8-(methylamino)-2,7-naphthyridin-3-yl)cyclopropanecarboxamide], the IC50 is at most 500 nM.

Consider `CNc1ncc(C#Cc2ccc3c(c2)CC(=O)N3C)c2cc(NC(=O)C3CC3)ncc12` [Example 803, N-(5-((1-methyl-2-oxoindolin-5-yl)ethynyl)-8-(methylamino)-2,7-naphthyridin-3-yl)cyclopropanecarboxamide], for which the IC50 is at most 500 nM.

For the molecule `CNc1ncc(C#Cc2ccc3nc(CF)n(C)c3c2)c2cc(NC(=O)C3CC3)ncc12` [Example 810, N-(5-((2-(fluoromethyl)-1-methyl-1H-benzo[d]imidazol-6-yl)ethynyl)-8-(methylamino)-2,7-naphthyridin-3-yl)cyclopropanecarboxamide], the IC50 is at most 500 nM.

For the molecule `CNc1ncc(C#Cc2ccc(CN3CCO[C@@H](C)C3)cc2)c2cc(NC(=O)C3CC3)ncc12` [Example 814, (S)—N-(8-(methylamino)-5-((4-((2-methylmorpholino)methyl)phenyl)ethynyl)-2,7-naphthyridin-3-yl)cyclopropanecarboxamide], the IC50 was at most 500 nM.

With `CNc1ncc(-c2nc3cc(N4CCO[C@@H](C)C4)ccc3o2)c2cc(NC(=O)[C@H]3C[C@H]3C)nnc12` [Example 891, (1S,2R)-2-methyl-N-(8-(methylamino)-5-(5-((S)-2-methylmorpholino)benzo[d]oxazol-2-yl)pyrido[3,4-c]pyridazin-3-yl)cyclopropane-1-carboxamide], the IC50 was at most 500 nM.

With `CNc1ncc(-c2nc3ccc(N4CCOCC4)cn3n2)c2cc(Nc3ccccn3)nnc12` [Example 892, N^8-methyl-5-(6-morpholino-[1,2,4]triazolo[1,5-a]pyridin-2-yl)-N^3-(pyridin-2-yl)pyrido[3,4-c]pyridazine-3,8-diamine], the IC50 is at most 500 nM.

Take `CNc1ncc(C#Cc2ccc(CN3CCC3)cn2)c2cc(NC(=O)C3CC3)ncc12` [Example 905, N-(5-((5-(azetidin-1-ylmethyl)pyridin-2-yl)ethynyl)-8-(methylamino)-2,7-naphthyridin-3-yl)cyclopropanecarboxamide]: the IC50 is at most 500 nM.

Turning to `CNc1ncc(C#Cc2ccc(CN3CC(F)(F)C3)cn2)c2cc(NC(=O)C3CC3)ncc12` [Example 906, N-(5-((5-((3,3-difluoroazetidin-1-yl)methyl)pyridin-2-yl)ethynyl)-8-(methylamino)-2,7-naphthyridin-3-yl)cyclopropanecarboxamide], the IC50 was at most 500 nM.

Staying with this assay, now noted: THP-1 cells, IFNa-stimulated, AlphaLISA (Assay B); read-out: Cellular_THP1_IFNa-pSTATS_TYK2.
Turning to `CNc1ncc(-c2nc3cc(-c4ncnn4C)ccc3o2)c2cc(NC(=O)C3CC3)ncc12` [Example 465], the IC50 is at most 500 nM.
